From patent US9796676B2, “Honeybee repellents and uses thereof” (Inscent, Inc., priority 2013, dated 2017)

Key:
[1] = system: Apis mellifera Carniolan foraging worker honeybees; experiment: Proboscis extension response (PER) assay with bees conditioned to 2-heptanone; type: in vivo; conditions: 0.5% compound in Triton X-100/water on filter paper, 4 s exposure; only bees giving PER with 2-heptanone and not with water or 15% Triton X-100 controls counted
Description: To determine whether a living honeybee can recognize a candidate compound, these compounds were tested using a proboscis extension response (PER) assay using classical conditioning approaches. Proboscis extension response conditioning is a case of appetitive learning, in which bees learn to associate odor stimuli with sucrose reward in the laboratory. In this case, bees were conditioned to produce a PER to 2-heptanone as the conditioned stimulus and a sugar reward as the unconditioned stimulus. These trained bees were then exposed to an odor pulse of a candidate compound to test whether a candidate compound would also produce a PER. If the candidate compound “mimics” 2-heptanone then the honeybee will extend its proboscis.
For conditioning procedures, Apis mellifera Carniolan foraging worker honeybees were obtained from a local apiary (typically 60 bees per shipment). The honeybees were held overnight in insect cages with food and water freely available, in an environmentally controlled room on a light cycle similar to the ambient cycle at the time of the assay.
For conditioning procedures, all tests were done in an odorant delivery apparatus set inside a fume hood. The apparatus comprised a set of open-ended, horizontal, 3 cm diameter by 10 cm long plastic tubes. Each tube was designed where a honeybee could be positioned at the distal end of a tube, with the opening at the other end of the tube located proximal to an inlet of the fume hood. To deliver an odorant, room air was pumped by a diaphragm pump through a particle filter via 0.25 inch plastic tubing at approximately 0.7 m/sec. The air flow passes into the headspace above an odorant (0.5% [v/v] 2-heptanone dissolved in odorless light paraffin oil) contained in a 100 mL bottle. The headspace air then passes through another plastic tube to a manifold of 4-way valves, each of which was attached near the proximal end of a plastic tube containing a bee. Each bee was exposed separately for a desired time period to the odorant by opening and closing the appropriate valve. When each valve was closed, the odor was flushed away immediately by the continuous fume hood air stream.
To train a honeybee to respond to a conditioned and unconditioned stimuli, bees were placed, without anesthesia, in individual 1.5 mL micro-centrifuge holding tubes and held overnight without access to food or water. The holding tubes containing the starved bees were placed in racks in groups of eight. One rack at a time was placed behind the odorant delivery apparatus so that each bee's head is centered at the distal end of a horizontal plastic tube. Each bee was exposed to the 2-heptanone odorant alone for four seconds, and then while being fed an 80% sucrose solution for and additional three seconds. The sucrose solution was delivered on a piece of saturated filter paper held in forceps. […] Positive and negative responses were recorded. A positive PER was scored when a bee extended its proboscis before the sucrose appeared. In a typical trial, 48 individual bees were subjected to conditioning.
After conditioning, honeybees were tested with the candidate compounds the same day or on the following day or, most commonly, both. When held overnight, bees were fed with sucrose and kept in their holding tubes. When tested the day after training, bees were given one or more rounds of conditioning with 2-heptatone to refresh their memories. Candidate compounds stocks were made at 5% (w/v) in polyoxyethylene octyl phenyl ether (TRITON® X-100), a non-ionic detergent/surfactant, and stored at 4° C. […] Test solutions were made fresh daily by mixing stock solutions with water for a final compound concentration of 0.5%. A solution of 0.5% 2-heptanone in paraffin oil was used as a positive control.

OBP2 = experiment: Fluorescent-quench ligand-protein-binding assay (OBP2 binding); design: species or system Apis mellifera
Text: To identify a honeybee repellent disclosed herein, candidate compounds were screened based upon the fact that 2-heptanone is an established repellent of bees. 2-heptanone is thought to mediate its behavioral response through binding to a specific odorant-binding protein called OBP2. […] Such assays are generally known in the art. See, e.g., Briand, et al., Ligand-Binding Properties and Structural Characterization of a Novel Rat Odorant-Binding Protein Variant, Eur. J. Biochem. 267(10): 3079-3089 (2000); Briand, et al., Ligand Binding and Physico-Chemical Properties of ASP2, A Recombinant Odorant-Binding Protein From Honeybee (Apis mellifera L.), Eur. J. Biochem. 268(3): 752-760 (2001); Briand, et al., Characterization of a Chemosensory Protein (ASP3c) from Honeybee (Apis mellifera L.) as a Brood Pheromone Carrier, Eur. J. Biochem. 269(18): 4586-4596 (2002), each of which is hereby incorporated by reference in its entirety.

SMILES | 2-heptanone positive bees testing positive to compound [1] [%] | OBP2 binding characteristic of compound (OBP2)
O=C(c1ccccc1)N1N=C(c2ccccc2)CC1(O)C(F)(F)F (centres unmarked) [compound 119] | 60.0 | Moderate (Moderate, indicates that 50% or less of the compound bound to OBP2.)
COc1ccc(-c2ccc(C=NNC(=O)c3ccccn3)o2)cc1Cl [compound 114] | 22.2 | Moderate (Moderate, indicates that 50% or less of the compound bound to OBP2.)
O=C(NN=Cc1ccc(-c2cccc(Cl)c2Cl)o1)c1ccncc1 [compound 113] | 11.1 | Moderate (Moderate, indicates that 50% or less of the compound bound to OBP2.)
Clc1ccccc1-c1nnc(SCc2ccccc2)o1 [compound 106] | 7.3 | Moderate (Moderate, indicates that 50% or less of the compound bound to OBP2.)
CCN(CC)C(=O)c1c(NC(=O)c2ccco2)sc2c1CCCCC2 [compound 97] | 21.1 | Moderate (Moderate, indicates that 50% or less of the compound bound to OBP2.)
Cc1cc(C)c(O)c(N=Cc2cc(I)cc(I)c2O)c1 [compound 82] | 6.4 | Moderate (Moderate, indicates that 50% or less of the compound bound to OBP2.)
C(=NN(c1ccccc1)c1ccccc1)c1ccncc1 [compound 92] | 7.0 | Moderate (Moderate, indicates that 50% or less of the compound bound to OBP2.)
O=C1CSC(=CC(=O)c2ccc(Cl)cc2)N1 [compound 111] | 30.6 | Moderate (Moderate, indicates that 50% or less of the compound bound to OBP2.)
COc1cccc(C=C2SC(=N)NC2=O)c1OCc1ccc(Cl)cc1Cl [compound 118] | – | Moderate (Moderate, indicates that 50% or less of the compound bound to OBP2.)
CCOC(=O)c1c(-c2ccccc2)csc1NC(=S)NC(C)=O [compound 78] | 7.7 | Moderate (Moderate, indicates that 50% or less of the compound bound to OBP2.)
Cc1cc(C)c2ccc(C=Cc3ccccc3N)nc2c1O [compound 90] | 17.0 | Moderate (Moderate, indicates that 50% or less of the compound bound to OBP2.)
CCOC(=O)c1ccc(N2NC(=O)C(=Cc3ccc(N4CCOCC4)cc3)C2=O)cc1 [compound 101] | 20.9 | Moderate (Moderate, indicates that 50% or less of the compound bound to OBP2.)
O=C(NC(=S)Nc1cccc2cccnc12)c1cccs1 [compound 117] | – | Moderate (Moderate, indicates that 50% or less of the compound bound to OBP2.)
Nc1cccc2nc3c4cccc5cccc(c(=O)n3c12)c54 [compound 109] | 12.1 | Moderate (Moderate, indicates that 50% or less of the compound bound to OBP2.)
COc1ccc2ccccc2c1C=Nc1cc(C)ccc1C [compound 84] | 27.9 | Moderate (Moderate, indicates that 50% or less of the compound bound to OBP2.)
CCN1C(=O)C(=Cc2cc(Br)ccc2O)SC1=S [compound 116] | 25.0 | Moderate (Moderate, indicates that 50% or less of the compound bound to OBP2.)

SMILES | 2-heptanone positive bees testing positive to compound [1] [%] | OBP2 binding characteristic of compound (OBP2)
Cc1ccc(NC(=O)c2c(NC(=O)c3ccco3)sc3c2CCCCC3)cc1 [compound 98] | 21.6 | Moderate (Moderate, indicates that 50% or less of the compound bound to OBP2.)
O=C1NC(=S)SC1=Cc1ccc(N2CCOCC2)c([N+](=O)[O-])c1 [compound 85] | 18.0 | Moderate (Moderate, indicates that 50% or less of the compound bound to OBP2.)
O=C1CSC(=O)N1CC(O)Cn1c2ccc(Cl)cc2c2cc(Cl)ccc21 (centres unmarked) [compound 72] | 2.3 | Moderate (Moderate, indicates that 50% or less of the compound bound to OBP2.)
COc1ccccc1NC(=S)NC(=O)c1ccc(F)cc1 [compound 107] | 5.1 | Moderate (Moderate, indicates that 50% or less of the compound bound to OBP2.)
O=c1nc(C(F)(F)F)cc(C=Cc2ccc(-c3cccc(Cl)c3)o2)[nH]1 [compound 108] | 16.2 | Moderate (Moderate, indicates that 50% or less of the compound bound to OBP2.)
Oc1c(I)cc2oc3c(c2c1C=Nc1nc[nH]n1)CCCC3 [compound 96] | 28.6 | Moderate (Moderate, indicates that 50% or less of the compound bound to OBP2.)
O=C1c2ccccc2C(=O)c2c1ccc1c(=O)n(C3CCCCC3)[nH]c21 [compound 88] | 14.3 | Moderate (Moderate, indicates that 50% or less of the compound bound to OBP2.)
c1ccn(-c2ncnc3sc4c(c23)CCCC4)c1 [compound 77] | 14.3 | Moderate (Moderate, indicates that 50% or less of the compound bound to OBP2.)
CCN1C(=O)C(=Cc2cc(Br)ccc2OC)SC1=S [compound 115] | 40.0 | Moderate (Moderate, indicates that 50% or less of the compound bound to OBP2.)
O=C(C=CNc1ccccc1O)c1ccc(Br)cc1 [compound 110] | 31.4 | Moderate (Moderate, indicates that 50% or less of the compound bound to OBP2.)
O=C1CCC(=O)N1CC(O)Cn1c2ccc(Br)cc2c2cc(Br)ccc21 (centres unmarked) [compound 93] | 14.0 | Moderate (Moderate, indicates that 50% or less of the compound bound to OBP2.)
Oc1ccc(Br)cc1C=Nc1ccc(NCc2ccccc2)cc1 [compound 87] | 9.5 | Moderate (Moderate, indicates that 50% or less of the compound bound to OBP2.)
NC(=O)c1ccccc1NC(=O)c1sc2ccccc2c1Cl [compound 94] | 16.7 | Moderate (Moderate, indicates that 50% or less of the compound bound to OBP2.)
C=CCN1C(=O)C(=Cc2cccc([N+](=O)[O-])c2O)SC1=S [compound 91] | 17.3 | Moderate (Moderate, indicates that 50% or less of the compound bound to OBP2.)
Cc1[nH]c2ccccc2c1C=NNC(=O)c1cccc(I)c1 [compound 103] | 32.4 | Moderate (Moderate, indicates that 50% or less of the compound bound to OBP2.)
CCOC(=O)CSc1nc2c(c(=O)n1-c1ccccc1)C1(CCCC1)Cc1ccccc1-2 [compound 71] | 19.1 | Moderate (Moderate, indicates that 50% or less of the compound bound to OBP2.)
